Patent US20240317708A1, “INHIBITORS OF TRANSGLUTAMINASES” (ZEDIRA GMBH, priority 2021, published 2024)

What was measured:
[1] = target: T1, recombinant human transglutaminase 2 (Homo sapiens, UniProt P21980); assay: Transglutaminase assay (dansylcadaverine incorporation into dimethylcasein, DCC-assay); format: biochemical; details: recombinant human TG2 10 nM, dansylcadaverine/dimethylcasein, 37° C.
T1 construct: purchased Zedira T022
T1 sequence (P21980 1-687): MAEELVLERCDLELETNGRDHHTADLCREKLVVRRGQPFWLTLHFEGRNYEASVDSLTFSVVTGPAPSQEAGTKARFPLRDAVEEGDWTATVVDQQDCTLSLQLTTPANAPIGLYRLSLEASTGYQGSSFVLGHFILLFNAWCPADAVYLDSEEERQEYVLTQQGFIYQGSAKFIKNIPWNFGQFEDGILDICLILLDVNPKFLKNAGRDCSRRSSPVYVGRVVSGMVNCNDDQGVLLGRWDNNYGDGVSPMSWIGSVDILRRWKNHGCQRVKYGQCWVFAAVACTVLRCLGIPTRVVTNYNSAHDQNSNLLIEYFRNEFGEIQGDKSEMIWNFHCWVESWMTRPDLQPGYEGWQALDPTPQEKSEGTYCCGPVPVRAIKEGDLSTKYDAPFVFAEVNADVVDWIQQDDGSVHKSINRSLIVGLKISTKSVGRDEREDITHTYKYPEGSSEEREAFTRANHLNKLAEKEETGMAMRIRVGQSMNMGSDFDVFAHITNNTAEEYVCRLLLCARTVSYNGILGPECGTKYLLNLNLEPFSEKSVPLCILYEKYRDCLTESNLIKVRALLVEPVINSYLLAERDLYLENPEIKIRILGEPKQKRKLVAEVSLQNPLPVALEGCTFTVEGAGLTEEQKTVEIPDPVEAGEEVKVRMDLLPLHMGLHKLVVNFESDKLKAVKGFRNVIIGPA
Method in brief: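 IC50 derived from fluorescence slope between 20 and 30 min (λex 330 nm, λem 500 nm, 37 °C), expressed relative to a 2% DMSO control. Reaction: 10 nM recombinant human TG2, 4 μM dimethylcasein, 16.7 μM dansylcadaverine, 10 mM CaCl2 and glutathione, pH 8.0.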

[2] = Log D shake flask method (octanol / PBS pH 7.4, HPLC); format: physicochemical; details: octanol/phosphate-buffered saline (PBS); octanol / PBS pH 7.4, shake flask
Experimental: In order to classify the inventive compounds according to their lipophilicity, Log D values (distribution coefficient) were determined by means of the well-established shake flask method, measuring the partition of a compound between an octanol and phosphate-buffered saline (PBS, pH 7.4) by HPLC.

[3] = Caco-2 permeability assay (CacoReady kit); format: in vitro ADME; details: human
Method in brief: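 Compounds are tested on pre-formed Caco-2 barriers supplied as a ready-to-use kit, following the kit protocol, and the Papp value is derived to estimate intestinal absorption.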

Row | IC50 [1] [nM] | logD [2] | Papp [3] [×10⁻⁶ cm/s] | SMILES
1 | 250 to 1500 | 1 to 3 | < 1 | COC(=O)/C=C/CC[C@H](NC(=O)C1CCc2ccccc2C1)C(=O)Nc1cccn(CC(=O)NC2C3CC4CC2CC(C(=O)N(C)C)(C4)C3)c1=O (stereo partly drawn) [III-137, (6S,E)-methyl 7-(1-(2-(4-aminoadamantane-N,N-dimethyl-1-carboxamide)-2-oxoethyl)-2-oxo-1,2-dihydropyridin-3-ylamino)-7-oxo-6-(1,2,3,4-tetrahydronaphthalene-2-carboxamido)hept-2-enoate]
2 | < 25 | 1 to 3 | < 1 | COC(=O)/C=C/CC[C@H](NC(=O)c1ccnn1C)C(=O)Nc1cccn(CC(=O)NC23CC4CC(C)(CC(C)(C4)C2)C3)c1=O [III-113, (S,E)-methyl 7-(1-(2-(3,5-dimethyladamantane-1-amino)-2-oxoethyl)-2-oxo-1,2-dihydropyridin-3-ylamino)-6-(1-methyl-1H-pyrazole-5-carboxamido)-7-oxohept-2-enoate]
3 | < 25 | 3 to 5 | < 1 | COC(=O)/C=C/CC[C@H](NC(=O)c1cc(Br)cs1)C(=O)Nc1cccn(CC(=O)NC2C3CC4CC(C3)CC2C4)c1=O (stereo partly drawn) [III-18, (S,E)-methyl 6-(4-bromothiophene-2-carboxamido)-7-(1-(2-(2-adamantylamino)-2-oxoethyl)-2-oxo-1,2-dihydropyridin-3-ylamino)-7-oxohept-2-enoate]
4 | 25 to 250 | 3 to 5 | 1 to 10 | COC(=O)/C=C/CC[C@H](NC(=O)c1oc2ccccc2c1C)C(=O)Nc1cccn(CC(=O)NC23CCCC4CC(CCC42)C3)c1=O (stereo partly drawn) [III-72, (S,E)-methyl 7-(1-(2-(4-homoisotwistane-3-amino)-2-oxoethyl)-2-oxo-1,2-dihydropyridin-3-ylamino)-6-(3-methylbenzofuran-2-carboxamido)-7-oxohept-2-enoate]
5 | < 25 | 3 to 5 | 1 to 10 | COC(=O)/C=C/CC[C@H](NC(=O)c1oc2ccccc2c1C)C(=O)Nc1cccn(CC(=O)N[C@@H]2C[C@@H]3C[C@H]([C@H]2C)C3(C)C)c1=O [III-69, (S,E)-methyl 6-(3-methylbenzofuran-2-carboxamido)-7-oxo-7-(2-oxo-1-(2-oxo-2-((1R,2R,3R,5S)-2,6,6-trimethylbicyclo[3.1.1]heptan-3-ylamino)ethyl)-1,2-dihydropyridin-3-ylamino)hept-2-enoate]
6 | < 25 | 1 to 3 | < 1 | COC(=O)/C=C/CC[C@H](NC(=O)c1snnc1C)C(=O)Nc1cccn(CC(=O)NC23CC4CC(C)(CC(C)(C4)C2)C3)c1=O [III-112, (S,E)-methyl 7-(1-(2-(3,5-dimethyladamantane-1-amino)-2-oxoethyl)-2-oxo-1,2-dihydropyridin-3-ylamino)-6-(4-methyl-1,2,3-thiadiazole-5-carboxamido)-7-oxohept-2-enoate]
7 | < 25 | 3 to 5 | 1 to 10 | COC(=O)/C=C/CC[C@H](NC(=O)c1oc2ccccc2c1C)C(=O)Nc1cccn(CC(=O)NC23CC4CC(C)(CC(C)(C4)C2)C3)c1=O [III-46, (S,E)-methyl 7-(1-(2-(3,5-dimethyladamantan-1-amino)-2-oxoethyl)-2-oxo-1,2-dihydropyridin-3-ylamino)-6-(3-methylbenzofuran-2-carboxamido)-7-oxohept-2-enoate]
8 | 25 to 250 | 3 to 5 | < 1 | COC(=O)/C=C/CC[C@H](NC(=O)[C@@H]1C[C@H](Br)CN1)C(=O)Nc1cccn(CC(=O)NC2C3CC4CC(C3)CC2C4)c1=O (stereo partly drawn) [III-27, (S,E)-methyl 6-((2S,4S)-4-bromopyrrolidine-2-carboxamido)-7-(1-(2-(2-adamantylamino)-2-oxoethyl)-2-oxo-1,2-dihydropyridin-3-ylamino)-7-oxohept-2-enoate]
